Measured values reported in patent US20250346643A1, “TROPOMYOSIN KINASE RECEPTOR (TRK) LIGANDS AS THERAPEUTICS TO SUPPORT LIVER REGENERATION” (Vanderbilt University, priority 2024, published 2025).

Tests used:
[1] = test system: CCND1; experiment: Western blot of CCND1 in HepG2 cell lysates; format: cell-based, human
Procedure: Human HepG2 and mouse AML12 cells were grown in 6-well plates. Cells were treated with NTF3 (20 ng/ml) purchased from STEMCELL technologies, Vancouver, Canada (cat. 78074), R&D Systems, Minneapolis, MN (267-N3), Gibco, Waltham, MA (PHC7036) and/or Loxo-195 (5-10 nM) (Selleckchem, Houston, TX; S8636) in complete growth media without L-glutamine for 2 hours. Lyophilized NTF3 was solubilized with sterile filtered PBS supplemented with 0.1% BSA, aliquoted and stored at −80° C. until use. […] HepG2 and AML12 cells were collected on ice in PBS, centrifuged for 10 sec […] cell pellet homogenized in RIPA buffer containing inhibitors (Roche, Basel, Switzerland; complete Mini proteinase inhibitor, 1×HALT phosphatase inhibitors, Thermo Scientific, Waltham, MA; cat. 78428). Cell lysates were sonicated and centrifuged for 10 min at 18,800×g. Protein concentration of supernatants were determined by Direct Detect Spectrophotometer (MilliporeSigma, Burlington, MA).
For immunoblot analysis, 30-50 μg of protein diluted in LSD sample buffer (Invitrogen, Waltham, MA) were analyzed per SDS-PAGE (NuPAGE™, Invitrogen, Waltham, MA) using MOPS buffer or MES buffer (Invitrogen, Waltham, MA). Gels were stained with Coomassie (Bio-Safe Coomassie G-250 Stain, Bio-Rad, Hercules, CA) and transferred onto PVDF membranes using semi-dry blotting (Trans-Blot SD, Bio-Rad, Hercules, CA). Images were visualized on an Amersham™ Imager 680 (Cytiva, Marlborough, MA). Semi-quantitative band densitometry was performed using ImageJ software (version 1.53).

[2] = test system: HSC-depleted mice (liver); experiment: Treatment of HSC-depleted mice with recombinant NTF3; format: in vivo, mouse
Procedure: T cell isolation and adoptive transfer. CD8+ T cells were isolated from spleen and lymph nodes (brachial, inguinal, axillar, submandibular, superficial cervical and mesenteric) of Jedi and controls. Spleens and lymph nodes were collected in ice cold T cell media (RPMI [Gibco® 11875-093] supplemented by 10% FBS, 2 mM L-glutamine [Thermo Fisher Scientific, Waltham, MA; 25030-081], 1% MEM nonessential amino acids [Thermo Fisher Scientific, Waltham, MA; 11140050] and 1 mM sodium pyruvate [Thermo Fisher Scientific, Waltham, MA; 11360-070]). Spleen and lymph nodes were mechanically homogenized and filtered through a 70 μm cell strainer (Falcon®). The cell suspension was centrifuged for 10 min at 4° C., 300 g. Red blood cell (RBC) lysis was performed with RBC buffer (Thermo Fisher Scientific, Waltham, MA; A10492). Cells were then washed with T cell media, filtered through a 70 μm cell strainer and centrifuged for 10 min at 4° C., 300 g. The cell pellet was then resuspended in flow buffer (PBS, pH 7.4, 2 mM EDTA, 0.05% BSA) and CD8+ T cells enriched using the mouse CD8+ T cell isolation kit (STEMCELL technologies, Vancouver, Canada; 19853A) according to the manufacturer's instructions. Enriched CD8+ T cells were centrifuged for 10 min at 4° C., 300 g, and resuspended in PBS. Mice with less than 25 g body weight were injected with up to 12 million Jedi T cells and mice greater than 25 g body weight were injected by tail vein injection with 18 million Jedi T cells. Control mice were injected with either T cells from H-2K^d mice or with vehicle only. Mice were not injected with lentiviral GFP particles as previously described (Agudo et al., Nat Biotechnol. 2015; 33(12): 1287-1292; Agudo et al., 2018; 48(2): 271-285.e5) to avoid lentiviral GFP-expression of other cells such as hepatocytes.
Treatment with recombinant NTF3. Four months old mice were injected via tail vein for 4 consecutive days with recombinant NTF3 (STEMCELL technology, Vancouver, Canada; cat. 78074, lots 1000070683, 1000077434) diluted in sterile 0.9% saline (0.9% NaCl) or vehicle only. Mice were weighed daily and recombinant NTF3 given at 20 ng/g body weight or 100 ng/g body weight, respectively. Lyophilized NTF3 was solubilized in 0.1% BSA/PBS (bovine serum albumin, Sigma-Aldrich, St. Louis, MO; A3059) and stored at −80° C. until use.
Immunohistochemistry. For immunohistochemistry, formalin-fixed paraffin embedded sections were cut at 4 μm thickness and slides incubated at 65° C. for 30 min. Slides were deparaffinized in Histo-Clear® (National Diagnostics, Charlotte, NC; HS2001GLL) and rehydrated by an ethanol gradient. Heat antigen retrieval was performed in 10 mM sodium citrate (pH 6.0) in a pressure cooker (Cuisinart®, CPC-600C), 20 min at high-pressure, natural pressure release for 30 min, and cooled at room temperature (i.e., about 20° C. to about 22° C.) for 30 min. Endogenous peroxidase quenching was performed with 1.5% hydrogen peroxide (Sigma-Aldrich, St. Louis, MO; H1009) for 20 min, and slides washed twice in phosphate buffered saline (PBS) twice. Blocking was performed for 30 min with Protein Block, Serum-free (Agilent, Santa Clara, CA; X090930-2). The primary antibody (TABLE 1) was diluted in antibody diluent (Agilent, Santa Clara, CA; S080983-2) and applied to the slides in a wet chamber overnight at 4° C. After 2 washes in PBS, slides were incubated with the appropriate secondary antibody (TABLE 1) for 30 min followed by two washes in PBS. […] The same reveal time was then used on all experimental slides. Slides were stained with hematoxylin (Sigma-Aldrich, St. Louis, MO; GHS332) for 30 sec, washed gently in lukewarm tap water for 5 min, and washed twice in distilled water, followed by two washes in phosphate buffered saline (PBS, pH 7.4). Slides were washed in increasing ethanol/water gradients, followed by three washes in Histo-Clear®. […]

NTF3: neurotrophin-3, recombinant protein; HSC-derived hepatocyte mitogen, ligand of TRKA, TRKB, TRKC
CCND1 amounts, NTF3 from three different vendors ([1]; HepG2 (FIG. 9K-L)): CCND1 amounts increased
CCND1 abundance ([1]; HepG2, NTF3 20 ng/ml, 2 hours (FIG. 8I-J)): increased CCND1 abundance
IGFBP2 expression in hepatocytes ([2]; HSC-ablated mice, NTF3): only increased CCND1 but not IGFBP2 expression
liver-to-body weight ratio ([2]; HSC-depleted mice, NTF3 20 ng/g or 100 ng/g body weight, tail vein, 4 consecutive days (FIG. 10C)): dose-dependently increased
liver-to-body weight ratio, higher dose group ([2]; HSC-depleted mice, NTF3 100 ng/g body weight, 4 consecutive days): significant increase
number of CCND1+HNF4a+ nuclei (multiplex immunohistochemistry) ([2]; HSC-depleted mice, NTF3 20 or 100 ng/g (FIG. 10E-F)): dose-dependently increased
nuclear CCND1 in hepatocytes in the midlobular region (staining) ([2]; HSC-depleted mice, NTF3 vs vehicle (FIG. 10D)): increased nuclear CCND1
Ki67+ hepatocytes ([2]; HSC-depleted mice, NTF3 vs vehicle (FIG. 10G-H)): increase
PCNA in whole liver lysates (Western blotting) ([2]; HSC-depleted mice, NTF3 vs vehicle (FIG. 10I, 11B)): increased
CCND1 in whole liver lysates (Western blotting) ([2]; HSC-depleted mice, NTF3 vs vehicle (FIG. 10I, 11C)): increased
